Literature values as cited in patent US20240066021A1, “METHODS FOR OPTIMIZING CFTR-MODULATOR THERAPY” (Children's Hospital Medical Center, priority 2021, published 2024).
Like-named read-outs stand apart in the source and are kept apart here.

Columns and labels:
[1] = target: mTOR (Homo sapiens, UniProt P42345); settings: Target mTOR, Gene Symbol MTOR
[2] = target: HTR1B (Homo sapiens, UniProt P28222); settings: Target HTR1B, Gene Symbol HTR1B
[3] = target: T1, TXNRD1 (Homo sapiens, UniProt Q16881)
T1 sequence (Q16881 151-649 limits assumed): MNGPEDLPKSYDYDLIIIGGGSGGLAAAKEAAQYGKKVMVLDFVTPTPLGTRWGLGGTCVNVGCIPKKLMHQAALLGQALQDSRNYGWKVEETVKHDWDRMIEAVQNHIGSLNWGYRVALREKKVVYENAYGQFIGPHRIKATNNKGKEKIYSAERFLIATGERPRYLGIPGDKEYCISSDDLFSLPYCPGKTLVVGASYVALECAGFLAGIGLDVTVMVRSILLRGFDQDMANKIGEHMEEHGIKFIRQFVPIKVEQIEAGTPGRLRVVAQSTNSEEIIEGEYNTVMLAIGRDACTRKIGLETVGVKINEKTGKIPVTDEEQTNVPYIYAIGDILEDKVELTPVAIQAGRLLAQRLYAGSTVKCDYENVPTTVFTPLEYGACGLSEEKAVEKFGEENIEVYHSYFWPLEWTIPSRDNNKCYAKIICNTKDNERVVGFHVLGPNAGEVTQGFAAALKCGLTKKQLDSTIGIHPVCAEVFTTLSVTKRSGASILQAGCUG

[4] = target: NR2A (Homo sapiens, UniProt Q12879)
[5] = target: T2, Guanylatecyclase A(NPR1) (Homo sapiens, UniProt P16066); settings: Target Guanylatecyclase A(NPR1), Gene Symbol NPR1
T2 sequence (P16066 33-1061): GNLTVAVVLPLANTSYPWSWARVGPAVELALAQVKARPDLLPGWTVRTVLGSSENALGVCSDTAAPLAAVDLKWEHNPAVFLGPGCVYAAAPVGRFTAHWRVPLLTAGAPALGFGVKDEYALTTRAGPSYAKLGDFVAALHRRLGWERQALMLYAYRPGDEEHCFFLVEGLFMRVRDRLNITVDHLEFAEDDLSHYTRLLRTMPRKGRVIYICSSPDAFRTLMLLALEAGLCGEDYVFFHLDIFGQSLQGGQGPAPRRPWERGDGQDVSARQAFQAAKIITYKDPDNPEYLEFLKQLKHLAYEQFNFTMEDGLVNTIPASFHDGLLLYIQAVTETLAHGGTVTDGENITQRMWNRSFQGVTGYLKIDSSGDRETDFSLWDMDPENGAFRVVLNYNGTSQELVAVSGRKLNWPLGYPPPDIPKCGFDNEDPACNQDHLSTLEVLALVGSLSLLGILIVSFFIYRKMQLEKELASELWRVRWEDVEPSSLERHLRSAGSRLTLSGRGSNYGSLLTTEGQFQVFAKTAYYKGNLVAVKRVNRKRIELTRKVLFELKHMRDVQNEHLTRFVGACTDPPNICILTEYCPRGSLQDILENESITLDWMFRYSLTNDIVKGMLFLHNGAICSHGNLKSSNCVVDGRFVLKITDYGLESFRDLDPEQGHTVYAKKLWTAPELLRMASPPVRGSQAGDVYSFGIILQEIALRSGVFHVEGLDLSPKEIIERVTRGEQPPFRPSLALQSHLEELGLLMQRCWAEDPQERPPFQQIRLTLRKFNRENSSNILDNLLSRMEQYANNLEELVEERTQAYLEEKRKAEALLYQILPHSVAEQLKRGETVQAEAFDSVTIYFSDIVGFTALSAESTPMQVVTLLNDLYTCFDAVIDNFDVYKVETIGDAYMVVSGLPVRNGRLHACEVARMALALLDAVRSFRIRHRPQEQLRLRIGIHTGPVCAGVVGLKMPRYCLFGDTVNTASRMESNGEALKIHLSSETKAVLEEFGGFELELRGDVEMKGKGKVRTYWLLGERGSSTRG

[6] = target: NR2A/NR3A (Homo sapiens, UniProt Q12879)
[7] = target: T3, IKK-beta (Homo sapiens, UniProt O14920); settings: Target IKK-beta, Gene Symbol IKBKB
T3 sequence (O14920 1-756): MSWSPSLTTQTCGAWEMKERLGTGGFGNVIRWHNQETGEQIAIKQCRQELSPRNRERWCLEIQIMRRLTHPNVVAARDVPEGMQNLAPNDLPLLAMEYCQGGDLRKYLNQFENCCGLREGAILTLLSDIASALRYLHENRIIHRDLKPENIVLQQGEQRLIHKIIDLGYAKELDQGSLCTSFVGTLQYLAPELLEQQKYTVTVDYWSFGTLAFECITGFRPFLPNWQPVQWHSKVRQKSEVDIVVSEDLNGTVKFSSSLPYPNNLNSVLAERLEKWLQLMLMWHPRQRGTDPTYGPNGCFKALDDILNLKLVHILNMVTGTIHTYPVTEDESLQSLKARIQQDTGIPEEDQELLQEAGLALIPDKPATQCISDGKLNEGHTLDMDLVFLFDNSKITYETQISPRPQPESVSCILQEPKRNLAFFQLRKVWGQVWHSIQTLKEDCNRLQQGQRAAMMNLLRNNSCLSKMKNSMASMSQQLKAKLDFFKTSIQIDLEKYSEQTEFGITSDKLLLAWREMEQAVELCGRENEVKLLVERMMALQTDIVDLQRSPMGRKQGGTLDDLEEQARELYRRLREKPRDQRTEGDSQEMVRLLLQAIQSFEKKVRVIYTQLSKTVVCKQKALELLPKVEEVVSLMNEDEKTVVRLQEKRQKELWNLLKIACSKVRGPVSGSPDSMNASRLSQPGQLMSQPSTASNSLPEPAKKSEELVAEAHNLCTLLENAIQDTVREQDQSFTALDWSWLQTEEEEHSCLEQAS

[8] = target: SCN2A (Homo sapiens, UniProt Q99250)
[9] = target: PI3K catclass IB(p110-gamma) (Homo sapiens, UniProt P48736)
[10] = system: patients with at least one G551D mutation
[11] = system: patients treated with ivacaftor versus patients untreated with CFTR modulators
[12] = Target NR2A, Gene Symbol GRIN2A
[13] = six months after drug initiation

NR2A, sequence (Q12879 23-1464, other chains not shown): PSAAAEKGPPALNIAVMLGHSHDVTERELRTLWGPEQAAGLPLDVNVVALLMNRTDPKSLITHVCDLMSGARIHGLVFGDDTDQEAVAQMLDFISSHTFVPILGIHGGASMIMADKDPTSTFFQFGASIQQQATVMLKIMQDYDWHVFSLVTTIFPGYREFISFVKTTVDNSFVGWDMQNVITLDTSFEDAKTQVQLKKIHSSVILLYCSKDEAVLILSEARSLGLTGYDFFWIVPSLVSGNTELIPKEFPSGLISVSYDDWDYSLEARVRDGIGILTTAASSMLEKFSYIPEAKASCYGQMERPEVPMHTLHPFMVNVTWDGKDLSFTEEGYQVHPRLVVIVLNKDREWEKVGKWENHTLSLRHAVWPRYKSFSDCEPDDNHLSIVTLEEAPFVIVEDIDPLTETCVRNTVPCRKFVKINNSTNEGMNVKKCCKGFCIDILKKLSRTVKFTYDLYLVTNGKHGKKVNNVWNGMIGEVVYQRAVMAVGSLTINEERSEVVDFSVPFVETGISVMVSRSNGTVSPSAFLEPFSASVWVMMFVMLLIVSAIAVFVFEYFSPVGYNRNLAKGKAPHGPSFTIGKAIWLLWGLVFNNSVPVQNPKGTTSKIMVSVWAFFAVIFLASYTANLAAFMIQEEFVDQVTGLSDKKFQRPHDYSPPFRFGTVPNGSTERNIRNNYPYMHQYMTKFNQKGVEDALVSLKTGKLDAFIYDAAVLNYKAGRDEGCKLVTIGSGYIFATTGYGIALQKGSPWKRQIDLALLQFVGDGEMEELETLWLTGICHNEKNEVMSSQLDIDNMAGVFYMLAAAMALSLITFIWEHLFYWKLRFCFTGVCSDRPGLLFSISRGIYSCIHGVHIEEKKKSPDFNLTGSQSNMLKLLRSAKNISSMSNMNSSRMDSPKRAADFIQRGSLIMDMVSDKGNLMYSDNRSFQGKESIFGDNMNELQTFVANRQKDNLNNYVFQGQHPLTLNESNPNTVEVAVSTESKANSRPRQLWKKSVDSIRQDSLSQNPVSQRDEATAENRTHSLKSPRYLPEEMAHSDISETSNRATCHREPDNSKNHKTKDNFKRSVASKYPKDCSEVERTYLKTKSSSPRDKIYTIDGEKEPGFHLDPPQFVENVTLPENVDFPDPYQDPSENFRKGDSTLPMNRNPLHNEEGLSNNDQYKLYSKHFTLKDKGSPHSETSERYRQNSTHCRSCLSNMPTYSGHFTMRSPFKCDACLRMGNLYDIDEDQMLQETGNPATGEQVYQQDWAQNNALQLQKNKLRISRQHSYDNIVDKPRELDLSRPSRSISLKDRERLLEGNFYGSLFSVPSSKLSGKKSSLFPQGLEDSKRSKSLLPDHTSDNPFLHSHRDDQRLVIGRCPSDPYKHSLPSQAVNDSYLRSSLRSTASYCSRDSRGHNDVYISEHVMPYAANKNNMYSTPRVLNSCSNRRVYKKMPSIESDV
HTR1B, sequence (P28222 whole entry): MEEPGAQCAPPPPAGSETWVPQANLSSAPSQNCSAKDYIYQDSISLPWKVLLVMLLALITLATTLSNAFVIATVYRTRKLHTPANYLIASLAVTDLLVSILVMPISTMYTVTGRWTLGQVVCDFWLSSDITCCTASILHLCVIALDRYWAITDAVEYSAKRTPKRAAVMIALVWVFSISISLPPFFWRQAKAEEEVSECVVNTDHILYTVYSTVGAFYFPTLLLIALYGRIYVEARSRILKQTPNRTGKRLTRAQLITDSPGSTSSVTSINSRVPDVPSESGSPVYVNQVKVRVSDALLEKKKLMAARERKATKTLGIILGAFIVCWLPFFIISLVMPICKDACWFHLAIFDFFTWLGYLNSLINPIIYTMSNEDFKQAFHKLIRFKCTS
NR2A/NR3A, sequence (Q12879 23-1464, other chains not shown): as the sequence (Q12879 23-1464, other chains not shown) above
PI3K catclass IB(p110-gamma), sequence (P48736 whole entry): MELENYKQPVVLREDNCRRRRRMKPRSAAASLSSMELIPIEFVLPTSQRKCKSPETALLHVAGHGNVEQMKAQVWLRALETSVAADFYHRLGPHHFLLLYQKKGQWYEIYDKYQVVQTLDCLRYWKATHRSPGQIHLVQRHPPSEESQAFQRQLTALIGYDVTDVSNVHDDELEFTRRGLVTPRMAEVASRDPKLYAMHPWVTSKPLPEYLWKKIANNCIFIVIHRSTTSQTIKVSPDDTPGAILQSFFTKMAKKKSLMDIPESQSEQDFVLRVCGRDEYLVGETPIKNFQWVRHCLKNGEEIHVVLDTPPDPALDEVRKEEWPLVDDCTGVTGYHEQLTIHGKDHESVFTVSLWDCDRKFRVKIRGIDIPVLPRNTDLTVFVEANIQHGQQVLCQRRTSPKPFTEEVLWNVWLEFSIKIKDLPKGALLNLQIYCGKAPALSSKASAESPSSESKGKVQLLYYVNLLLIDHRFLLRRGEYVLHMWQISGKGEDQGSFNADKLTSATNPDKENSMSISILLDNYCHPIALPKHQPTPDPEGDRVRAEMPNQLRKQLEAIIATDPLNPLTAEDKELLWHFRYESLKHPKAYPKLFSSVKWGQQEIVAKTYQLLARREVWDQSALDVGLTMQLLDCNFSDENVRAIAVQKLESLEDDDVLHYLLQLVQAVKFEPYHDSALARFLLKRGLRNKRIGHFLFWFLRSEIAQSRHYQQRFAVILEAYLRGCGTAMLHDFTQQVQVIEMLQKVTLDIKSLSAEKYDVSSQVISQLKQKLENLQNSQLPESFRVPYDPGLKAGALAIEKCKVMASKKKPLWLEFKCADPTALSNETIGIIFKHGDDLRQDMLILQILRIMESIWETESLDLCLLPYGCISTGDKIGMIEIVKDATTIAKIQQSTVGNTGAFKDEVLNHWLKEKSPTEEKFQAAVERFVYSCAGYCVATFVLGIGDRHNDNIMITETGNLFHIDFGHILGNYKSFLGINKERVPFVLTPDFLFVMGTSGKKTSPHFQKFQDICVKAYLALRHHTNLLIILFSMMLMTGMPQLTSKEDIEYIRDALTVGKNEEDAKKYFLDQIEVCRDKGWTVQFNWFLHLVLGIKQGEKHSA

For COc1ccc(-c2ccc3c(N4CCOC[C@@H]4C)nc(N4CCOC[C@@H]4C)nc3n2)cc1CO [AZD8055], the Effect [1] is listed as “Inhibition”.

In the case of CN(C)CCc1c[nH]c2ccc(CS(=O)(=O)N3CCCC3)cc12 [Almotriptan], the Effect [2] is listed as “Activation”.

For CO[C@H]1C[C@@H]2CC[C@@H](C)[C@@](O)(O2)C(=O)C(=O)N2CCCC[C@H]2C(=O)O[C@H]([C@H](C)C[C@@H]2CC[C@@H](OCCO)[C@H](OC)C2)CC(=O)[C@H](C)/C=C(\C)[C@@H](O)[C@@H](OC)C(=O)[C@H](C)C[C@H](C)/C=C/C=C/C=C/1C [Everolimus], the Effect [1] is listed as “Inhibition”.

In the case of Cn1c(COP(=O)(NCCBr)NCCBr)cnc1[N+](=O)[O-] [Evofosfamide], the Effect [3] is given as “Inhibition”.

For CN[C@@H]1CCc2[nH]c3ccc(C(N)=O)cc3c2C1 [Frovatriptan], the Effect [2] is listed as “Activation”.

For NC(=O)CNC1Cc2ccccc2C1 [Indantadol], the Effect [4, 12] is listed as “Inhibition”.

For O=[N+]([O-])O[C@H]1CO[C@H]2[C@@H]1OC[C@H]2O[N+](=O)[O-] [Isosorbide dinitrate], the Effect [5] is given as “Inhibition”.

In the case of CNC1(c2ccccc2Cl)CCCCC1=O (stereo not shown) [Ketamine], the Effect [4] is listed as “Inhibition” and the Effect [6] is listed as “Inhibition”.

For C[C@@H]1CN(C(=O)CN2CC(C)(C)OC[C@H]2C(=O)Nc2cc(Cl)cc3c2[nH]c2cnccc23)C[C@H](C)O1 [MLN0415], the Effect [7] is listed as “Inhibition”.

For CC12CC3CC(C)(C1)CC(N)(C3)C2 [Memantine], the Effect [4, 12] is given as “Inhibition” and the Effect ([6]; Target NR2A/NR3A, Gene Symbol GRIN2A) is given as “Inhibition”.

In the case of CC(=O)[O-].CC(=O)[O-].CCc1c(CC)c2cc3nc(cnc4cc(OCCOCCOCCOC)c(OCCOCCOCCOC)cc4ncc4nc(cc1[n-]2)C(CCCO)=C4C)C(C)=C3CCCO.O.[Gd+3] [Motexafin gadolinium], the Effect ([3]; Target TXNRD1, Gene Symbol TXNRD1) is listed as “Inhibition”.

For CNS(=O)(=O)CCc1ccc2[nH]cc(C3CCN(C)CC3)c2c1 [Naratriptan], the Effect [2] is listed as “Activation”.

In the case of CC(Cc1ccccc1)(NC(=O)CN)c1ccccc1 (stereo not shown) [Remacemide], the Effect [4, 12] is listed as “Inhibition”.

For CO[C@H]1C[C@@H]2CC[C@@H](C)[C@@](O)(O2)C(=O)C(=O)N2CCCC[C@H]2C(=O)O[C@H]([C@H](C)C[C@@H]2CC[C@@H](OP(C)(C)=O)[C@H](OC)C2)CC(=O)[C@H](C)/C=C(\C)[C@@H](O)[C@@H](OC)C(=O)[C@H](C)C[C@H](C)/C=C/C=C/C=C/1C [Ridaforolimus], the Effect [1] is listed as “Inhibition”.

In the case of CN(C)CCc1c[nH]c2ccc(Cn3cncn3)cc12 [Rizatriptan], the Effect [2] is given as “Activation”.

For CN1CCN(c2ncc(-c3cc(Cl)cc(Cl)c3Cl)c(N)n2)CC1 [Sipatrigine], the Effect [8] is listed as “Inhibition”.

In the case of C=CCN(/C=C1/C(=O)O[C@H](COC)[C@@]2(C)C1=C(O)C(=O)C1=C2[C@H](OC(C)=O)C[C@]2(C)C(=O)CC[C@@H]12)CC=C [Sonolisib], the Effect [9] is given as “Inhibition”.

In the case of Nc1nc(N)c2nc(-c3cccc(O)c3)c(-c3cccc(O)c3)nc2n1 [TG100115], the Effect ([9]; Target PI3K catclass IB(p110-gamma), Gene Symbol PIK3CG) is listed as “Inhibition”.

In the case of CO[C@H]1C[C@@H]2CC[C@@H](C)[C@@](O)(O2)C(=O)C(=O)N2CCCC[C@H]2C(=O)O[C@H]([C@H](C)C[C@@H]2CC[C@@H](OC(=O)C(C)(CO)CO)[C@H](OC)C2)CC(=O)[C@H](C)/C=C(\C)[C@@H](O)[C@@H](OC)C(=O)[C@H](C)C[C@H](C)/C=C/C=C/C=C/1C [Temsirolimus intracellular, Temsirolimus], the Effect [1] is listed as “Inhibition”.

For NC1=N[C@H](O)[C@H]2[C@H]3O[C@]4(O)O[C@@H]([C@@H](O)[C@@]2(N1)[C@@H]4O)[C@]3(O)CO [Tetrodotoxin], the Effect [8] is listed as “Inhibition”.

In the case of COc1cc(O)c(CC=C(C)C)c(O)c1C(=O)/C=C/c1ccc(O)cc1 [Xanthohumol], the Effect [7] is given as “Inhibition”.

In the case of CC(C)(C)c1cc(C(C)(C)C)c(NC(=O)c2c[nH]c3ccccc3c2=O)cc1O [ivacaftor], the “mean change in ppFEV1” value [10, 13] is given as 6.7 (95% CI 4.9-8.5), the “mean change in weight” value [10, 13] is given as 2.5 kg and the “mean decline in sweat chloride” value [10, 13] is given as −54 mEq. For the same compound, the “quality of life scores” value [10, 13] was “improvement”, the rate of hospitalization ([10]; six months after drug initiation, p<0.001) was “decreased” and the “portion of subjects with physiologic CFTR correction that did not have improvement in FEV1>5% (poor lung function response)” value ([10]; subjects with sweat chloride shifts by −40 to −80 mEq/L) was ~50%. For the same compound, the BMI ([11]; longer term follow up) was “maintain improved”, the hospitalizations ([11]; longer term follow up) was “decreasing” and the pulmonary exacerbations ([11]; longer term follow up) was “decreasing”. For the same compound, the lung function decline ([11]; versus patients untreated with CFTR modulators) was “slowed”.

For Nesiritide, the Effect [5] is listed as “Activation”.
